Measurements published in ChEMBL document CHEMBL1933019, “Cell-based and in-silico studies on the high intrinsic activity of two boron-containing salbutamol derivatives at the human β₂-adrenoceptor” (Bioorg Med Chem, 2012).
pEC50, pKi: −log10 of the molar value.

How the values were obtained:
[1] = target: T1, Beta-2 adrenergic receptor (Homo sapiens, UniProt P07550); experiment: Displacement of [3H]-DHA from recombinant human beta2 adrenoceptor expressed in HEK293T cells; type: cell-based, HEK-293T
[2] = target: T1, Beta-2 adrenergic receptor; experiment: Agonist activity at recombinant human beta2 adrenoceptor expressed in HEK293T cells assessed as increase in IBMX-induced cAMP accumulation using [3H]-cAMP after 30 mins by liquid scintillation counting; type: functional, cell-based, HEK-293T

T1 sequence (P07550 whole entry): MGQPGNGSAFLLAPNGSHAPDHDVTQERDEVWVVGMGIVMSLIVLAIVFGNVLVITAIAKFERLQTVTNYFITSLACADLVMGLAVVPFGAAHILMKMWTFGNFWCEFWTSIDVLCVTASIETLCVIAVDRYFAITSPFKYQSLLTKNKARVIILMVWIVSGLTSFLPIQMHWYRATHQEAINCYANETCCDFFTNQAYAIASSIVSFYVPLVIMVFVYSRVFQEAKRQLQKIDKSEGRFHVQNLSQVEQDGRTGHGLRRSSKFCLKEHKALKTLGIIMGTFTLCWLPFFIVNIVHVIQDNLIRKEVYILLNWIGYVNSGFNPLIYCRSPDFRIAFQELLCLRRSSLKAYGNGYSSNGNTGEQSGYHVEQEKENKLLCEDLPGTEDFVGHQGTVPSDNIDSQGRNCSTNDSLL

pKi [1]	pEC50 [2]	Structure (SMILES)
5.41	6.78	CC(C)(C)NC[C@H](O)c1ccc2c(c1)C[OH+][B-](O)(O)O2
5.18	6.86	CC(C)(C)NC[C@H](O)c1ccc2c(c1)C[OH+][B-](O)(c1ccccc1)O2 (some centres undefined)
